# Experimental data published in US8871753B2, “Macrocyclic compounds and their use as kinase inhibitors” (Incyte Corporation, priority 2008, dated 2014).
# pIC50: −log10 of the molar value. Counter-ions that a name gives are not always drawn. Like-named read-outs stand apart in the source and are kept apart here.
# Experiments:
# Assay type in all cases: biochemical
# [1] = biological target: TYK2 (Homo sapiens, UniProt P29597); experiment: TYK2 kinase inhibition (Table A1)
# [2] = biological target: T1, human JAK1 (a.a. 837-1142) (Homo sapiens, UniProt P23458); experiment: In vitro JAK kinase assay (HTRF, phosphorylation of a biotinylated peptide), JAK1; details: read-out: JAK1 IC50
# T1 construct: human JAK1 (a.a. 837-1142); His tag (N); made in house; host or cells: insect cells (baculovirus)
# T1 sequence (P23458 849-1154): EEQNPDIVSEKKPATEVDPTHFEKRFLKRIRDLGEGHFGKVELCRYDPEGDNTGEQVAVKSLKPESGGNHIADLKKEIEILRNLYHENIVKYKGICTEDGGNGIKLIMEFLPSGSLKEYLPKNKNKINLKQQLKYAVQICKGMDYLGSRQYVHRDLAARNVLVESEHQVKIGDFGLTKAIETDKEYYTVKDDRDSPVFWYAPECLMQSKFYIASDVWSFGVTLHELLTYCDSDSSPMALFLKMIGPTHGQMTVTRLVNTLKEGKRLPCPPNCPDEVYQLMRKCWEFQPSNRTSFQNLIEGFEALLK
# Method in brief: (§1)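 Kinase activity was measured as phosphorylation of a biotinylated peptide, with ATP at 90 μM for JAK1, 30 μM for JAK2 and 3 μM for JAK3. Reactions ran 1 hr at room temperature, were stopped with EDTA plus SA-APC and Eu-Py20, and were read by HTRF after 40 minutes of antibody binding.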
# [3] = biological target: T2, human JAK2 (a.a. 828-1132) (Homo sapiens, UniProt O60674); experiment: In vitro JAK kinase assay (HTRF, phosphorylation of a biotinylated peptide), JAK2
# T2 construct: JAK2 (a.a. 828-1132); His tag (N); made in house; host or cells: insect cells (baculovirus)
# T2 sequence (O60674 828-1132): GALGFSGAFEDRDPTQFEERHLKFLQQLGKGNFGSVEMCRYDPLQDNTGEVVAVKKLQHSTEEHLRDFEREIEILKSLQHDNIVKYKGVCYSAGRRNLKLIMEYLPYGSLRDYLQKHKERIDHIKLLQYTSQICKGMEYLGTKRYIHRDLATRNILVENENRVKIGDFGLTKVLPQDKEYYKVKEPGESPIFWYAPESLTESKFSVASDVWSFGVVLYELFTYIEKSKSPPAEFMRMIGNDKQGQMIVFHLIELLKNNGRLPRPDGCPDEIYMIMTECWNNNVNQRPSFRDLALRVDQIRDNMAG
# Method in brief: as §1
# [4] = biological target: T3, human JAK3 (a.a. 781-1124) (Homo sapiens, UniProt P52333); experiment: In vitro JAK kinase assay (HTRF, phosphorylation of a biotinylated peptide), JAK3
# T3 construct: JAK3 (a.a. 781-1124); His tag (N); made in house; host or cells: insect cells (baculovirus)
# T3 sequence (P52333 781-1124): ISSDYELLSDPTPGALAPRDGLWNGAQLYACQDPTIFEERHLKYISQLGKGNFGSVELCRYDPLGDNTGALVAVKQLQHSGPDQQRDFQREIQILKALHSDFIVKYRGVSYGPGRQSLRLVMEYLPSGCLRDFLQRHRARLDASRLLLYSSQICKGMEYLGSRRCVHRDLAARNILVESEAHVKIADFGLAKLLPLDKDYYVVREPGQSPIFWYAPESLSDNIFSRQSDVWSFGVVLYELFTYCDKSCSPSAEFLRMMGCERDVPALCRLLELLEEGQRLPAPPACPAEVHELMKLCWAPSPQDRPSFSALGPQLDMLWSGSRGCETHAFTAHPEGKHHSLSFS
# Method in brief: as §1
# Chain of TYK2 (P29597 whole entry): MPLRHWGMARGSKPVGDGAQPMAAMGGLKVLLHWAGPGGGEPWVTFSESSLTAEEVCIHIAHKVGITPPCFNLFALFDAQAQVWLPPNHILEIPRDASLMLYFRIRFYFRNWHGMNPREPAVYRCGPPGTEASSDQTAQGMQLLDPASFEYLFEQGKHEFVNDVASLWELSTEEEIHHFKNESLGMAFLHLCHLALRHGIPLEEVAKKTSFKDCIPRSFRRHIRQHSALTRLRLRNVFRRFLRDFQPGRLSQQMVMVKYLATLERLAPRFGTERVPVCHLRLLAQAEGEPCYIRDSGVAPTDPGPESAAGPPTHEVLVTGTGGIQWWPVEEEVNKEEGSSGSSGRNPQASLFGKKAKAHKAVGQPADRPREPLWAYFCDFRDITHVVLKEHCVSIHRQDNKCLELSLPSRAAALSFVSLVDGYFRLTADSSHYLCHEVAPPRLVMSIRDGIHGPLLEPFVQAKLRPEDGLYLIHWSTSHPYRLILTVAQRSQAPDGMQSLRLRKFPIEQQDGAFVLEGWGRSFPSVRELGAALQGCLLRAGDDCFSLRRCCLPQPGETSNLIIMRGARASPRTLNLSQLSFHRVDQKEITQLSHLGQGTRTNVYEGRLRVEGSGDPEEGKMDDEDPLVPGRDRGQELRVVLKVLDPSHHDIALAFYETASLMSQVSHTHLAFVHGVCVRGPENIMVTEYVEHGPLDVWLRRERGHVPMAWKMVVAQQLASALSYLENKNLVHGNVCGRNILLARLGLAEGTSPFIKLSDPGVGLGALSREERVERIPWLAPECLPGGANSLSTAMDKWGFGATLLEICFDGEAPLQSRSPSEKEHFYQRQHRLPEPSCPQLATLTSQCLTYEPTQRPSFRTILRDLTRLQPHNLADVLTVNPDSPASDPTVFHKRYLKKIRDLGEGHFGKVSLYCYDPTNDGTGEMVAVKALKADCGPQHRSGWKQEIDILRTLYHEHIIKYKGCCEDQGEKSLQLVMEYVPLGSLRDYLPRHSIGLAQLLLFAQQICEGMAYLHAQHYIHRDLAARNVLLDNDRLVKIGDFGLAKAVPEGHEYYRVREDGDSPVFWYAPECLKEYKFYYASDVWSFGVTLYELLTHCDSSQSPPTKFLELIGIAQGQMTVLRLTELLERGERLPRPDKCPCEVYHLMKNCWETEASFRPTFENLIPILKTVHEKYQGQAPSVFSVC
SMILES,pIC50 ([1]; Table D1),pIC50 ([2]; Table D1),pIC50 ([3]; Table D1),pIC50 ([4]; Table D1),also measured
"CC(=O)N1CCN(C(=O)COc2ccc3cc2CCc2cncc(c2)Nc2ncc(Cl)c(n2)N3)CC1 [Example D252, 12-[2-(4-Acetylpiperazin-1-yl)-2-oxoethoxy]-6-chloro-2,4,8,18,22-pentaazatetracyclo[14.3.1.1(3,7).1(9,13)]docosa-1(20),3(22),4,6,9(21),10,12,16,18-nonaene bis(trifluoroacetate)]",< 6.40,7.19,6.61,< 6.40,
"Clc1cnc2nc1Nc1ccc(N3CCNCC3)c(c1)CCc1cccc(c1)N2 [Example D83, 6-Chloro-12-piperazin-1-yl-2,4,8,22-tetraazatetracyclo[14.3.1.1(3,7).1(9,13)]docosa-1(20),3(22),4,6,9(21),10,12,16,18-nonaene bis(trifluoroacetate)]",6.89,6.90,7.59,7.24,
"O=C(Nc1cc2cc(c1)Nc1nc(ncc1Cl)Nc1cccc(c1)CC2)C1CCC1 [Example B211, N-[6-Chloro-2,4,8,22-tetraazatetracyclo[14.3.1.1(3,7).1(9,13)]docosa-1(20),3(22),4,6,9(21),10,12,16,18-nonaen-11-yl]cyclobutanecarboxamide trifluoroacetate]",,,,,pIC50 ([1]; Table B1): 6.72; pIC50 ([2]; Table B1): 7.25; pIC50 ([3]; Table B1): 7.70; pIC50 ([4]; Table B1): 6.87
"O=C(COc1ccc2cc1CCc1cncc(c1)Nc1ncc(Cl)c(n1)N2)N1CCN(C(=O)Nc2ccccc2)CC1 [Example D264, 4-({[6-Chloro-2,4,8,18,22-pentaazatetracyclo[14.3.1.1(3,7).1(9,13)]docosa-1(20),3(22),4,6,9(21),10,12,16,18-nonaen-12-yl]oxy}acetyl)-N-phenylpiperazine-1-carboxamide bis(trifluoroacetate)]",6.52,8.21,7.66,< 6.40,
"O=C(c1cccnc1)N1CCC(CCOc2ccc3cc2CCc2cncc(c2)Nc2ncc(Cl)c(n2)N3)CC1 [Example D180, 6-Chloro-12-{2-[1-(pyridin-3-ylcarbonyl)piperidin-4-yl]ethoxy}-2,4,8,18,22-pentaazatetracyclo[14.3.1.1(3,7).1(9,13)]docosa-1(20),3(22),4,6,9(21),10,12,16,18-nonaene tris(trifluoroacetate)]",< 6.40,6.59,< 6.40,< 6.40,
"O=C(Cn1c(=O)oc2c3cc(cc21)Nc1nc(ncc1Cl)Nc1cccc(c1)CC3)NCc1ccccc1 [Example D186, N-Benzyl-2-[4-chloro-19-oxo-18-oxa-2,6,8,20,25-pentaazapentacyclo[14.6.1.1(3,7).1(9,13).0(17,21)]pentacosa-1(23),3(25),4,6,9(24),10,12,16,21-nonaen-20-yl]acetamide trifluoroacetate]",6.10,7.28,7.40,6.79,
"O=C(c1ccc(F)cc1F)N1CCC(CCNc2ccc3cc2CCc2cncc(c2)Nc2ncc(Cl)c(n2)N3)CC1 [Example D220, 6-Chloro-N-{2-[1-(2,4-difluorobenzoyl)piperidin-4-yl]ethyl}-2,4,8,18,22-pentaazatetracyclo[14.3.1.1(3,7).1(9,13)]docosa-1(20),3(22),4,6,9(21),10,12,16,18-nonaen-12-amine tris(trifluoroacetate)]",7.42,7.85,7.40,< 6.40,
"CC1(C)Cc2cccc(NC(=O)N3CCC(CCOc4ccc5cc4CCc4cncc(c4)Nc4ncc(Cl)c(n4)N5)CC3)c2O1 [Example D175, 4-(2-{[6-Chloro-2,4,8,18,22-pentaazatetracyclo[14.3.1.1(3,7).1(9,13)]docosa-1(20),3(22),4,6,9(21),10,12,16,18-nonaen-12-yl]oxy}ethyl)-N-(2,2-dimethyl-2,3-dihydro-1-benzofuran-7-yl)piperidine-1-carboxamide bis(trifluoroacetate)]",< 6.40,6.82,< 6.40,< 6.40,
"N#Cc1ccccc1NC(=O)N1CCC(CCOc2ccc3cc2CCc2cncc(c2)Nc2ncc(Cl)c(n2)N3)CC1 [Example D173, 4-(2-{[6-Chloro-2,4,8,18,22-pentaazatetracyclo[14.3.1.1(3,7).1(9,13)]docosa-1(20),3(22),4,6,9(21),10,12,16,18-nonaen-12-yl]oxy}ethyl)-N-(2-cyanophenyl)piperidine-1-carboxamide bis(trifluoroacetate)]",< 6.40,7.00,< 6.40,< 6.40,
"COc1cccnc1N1CCN(C(=O)COc2ccc3cc2CCc2cncc(c2)Nc2ncc(Cl)c(n2)N3)CC1 [Example D249, 6-Chloro-12-{2-[4-(3-methoxypyridin-2-yl)piperazin-1-yl]-2-oxoethoxy}-2,4,8,18,22-pentaazatetracyclo[14.3.1.1(3,7).1(9,13)]docosa-1(20),3(22),4,6,9(21),10,12,16,18-nonaene tris(trifluoroacetate)]",< 6.40,7.15,< 6.40,< 6.40,
"Clc1cnc2nc1Nc1ccc(OCC3CCNC3)c(c1)CCc1cncc(c1)N2 (stereo not drawn) [Example C55, 6-Chloro-12-(pyrrolidin-3-ylmethoxy)-2,4,8,18,22-pentaazatetracyclo[14.3.1.1(3,7).1(9,13)]docosa-1(20),3(22),4,6,9(21),10,12,16,18-nonaene trihydrochloride]",,,,,pIC50 [1]: < 6.40; pIC50 [2]: 7.02; pIC50 [3]: < 6.40; pIC50 [4]: < 6.40
"NC(=O)N1CCN(C(=O)COc2ccc3cc2CCc2cncc(c2)Nc2ncc(Cl)c(n2)N3)CC1 [Example D270, 4-({[6-Chloro-2,4,8,18,22-pentaazatetracyclo[14.3.1.1(3,7).1(9,13)]docosa-1(20),3(22),4,6,9(21),10,12,16,18-nonaen-12-yl]oxy}acetyl)piperazine-1-carboxamide bis(trifluoroacetate)]",6.58,7.64,7.10,< 6.40,
"Cc1cc(C(=O)N2CCC(Nc3ccc4cc3CCc3cncc(c3)Nc3ncc(Cl)c(n3)N4)CC2)no1 [Example D160, 6-Chloro-N-{1-[(5-methylisoxazol-3-yl)carbonyl]piperidin-4-yl}-2,4,8,18,22-pentaazatetracyclo[14.3.1.1(3,7).1(9,13)]docosa-1(20),3(22),4,6,9(21),10,12,16,18-nonaen-12-amine tris(trifluoroacetate)]",< 6.40,6.61,6.47,< 6.40,
"O=C(CC1CCN(c2ccccn2)C1)Nc1ccc2cc1CCc1cncc(c1)Nc1ncc(Cl)c(n1)N2 (stereo not drawn) [Example D156, N-[6-Chloro-2,4,8,18,22-pentaazatetracyclo[14.3.1.1(3,7).1(9,13)]docosa-1(20),3(22),4,6,9(21),10,12,16,18-nonaen-12-yl]-2-(1-pyridin-2-ylpyrrolidin-3-yl)acetamide tris(trifluoroacetate)]",6.66,7.62,7.54,< 6.40,
"O=C(CC1CN(C(=O)c2ccn[nH]2)C1)Nc1ccc2cc1CCc1cncc(c1)Nc1ncc(Cl)c(n1)N2 [Example D150, N-[6-Chloro-2,4,8,18,22-pentaazatetracyclo[14.3.1.1(3,7).1(9,13)]docosa-1(20),3(22),4,6,9(21),10,12,16,18-nonaen-12-yl]-2-[1-(1H-pyrazol-5-ylcarbonyl)azetidin-3-yl]acetamide bis(trifluoroacetate)]",6.36,7.48,6.87,< 6.00,
